Source: the NIST ThermoML archive (doi:10.1021/je900266h)

Key:
[1] = refractive index (Na D-line) (dimensionless); mn = molality of the nth substance listed, in mol/kg; conditions: 101 kPa, Liquid, Standard Abbe refractometry
[2] = refractive index (Na D-line) (dimensionless); conditions: 101.33 kPa, Liquid, Standard Abbe refractometry

O=S(=O)([O-])[O-].[Mg+2] [magnesium sulfate] + O
refractive index, [1]
Conditions	288.15 K	298.15 K	308.15 K	318.15 K
m1 = 0.2096	1.33858	1.33762	1.33629	1.33491
m1 = 0.3448	1.34163	1.34072	1.3393	1.33803
m1 = 0.5911	1.3471	1.34594	1.34463	1.34335
m1 = 0.7832	1.35115	1.35009	1.34872	1.34735
m1 = 0.9997	1.35558	1.35438	1.35295	1.3516
m1 = 1.19	1.35934	1.3581	1.35667	1.35532
m1 = 1.379	1.36292	1.36174	1.36037	1.35894
m1 = 1.621	1.3674	1.36613	1.36468	1.36342
m1 = 1.867	1.37176	1.37039	1.36899	1.3677
m1 = 2.12	1.376	1.37469	1.3732	1.37185
m1 = 2.36	1.37993	1.37853	1.37709	1.37586
m1 = 2.592	1.38344	1.38211	1.38069	1.37944
m1 = 2.859	–	1.38613	1.38461	1.38352
m1 = 3.087	–	1.38927	1.3878	1.38662
m1 = 3.347	–	–	1.39151	1.39026
m1 = 3.579	–	–	1.3945	1.39328
m1 = 3.807	–	–	–	1.39614
m1 = 3.998	–	–	–	1.39817

O [water]
[2]
Conditions	refractive index
288.15 K	1.33339
298.15 K	1.33248
308.15 K	1.33128
318.15 K	1.32979

O [water] + O=S(=O)([O-])[O-].[Li+].[Li+]
[1], m2 = 0
Conditions	refractive index
288.15 K	1.33339
298.15 K	1.33248
308.15 K	1.33128
318.15 K	1.32979

O [water] + O=S(=O)([O-])[O-].[Mg+2]
[1], m2 = 0
Conditions	refractive index
288.15 K	1.33339
298.15 K	1.33248
308.15 K	1.33128
318.15 K	1.32979
